Series [1] in a line: Solubility of the compound in water. It is filed as physicochemical. As to conditions: buffer.
Series [2] can be described thus: Aqueous solubility of the compound in 20% DMSO. As to conditions: buffer. It is filed as physicochemical.
Series [3] has as its target T1, Glycogen phosphorylase, muscle form (Oryctolagus cuniculus) (UniProt P00489).
T1 sequence (whole entry): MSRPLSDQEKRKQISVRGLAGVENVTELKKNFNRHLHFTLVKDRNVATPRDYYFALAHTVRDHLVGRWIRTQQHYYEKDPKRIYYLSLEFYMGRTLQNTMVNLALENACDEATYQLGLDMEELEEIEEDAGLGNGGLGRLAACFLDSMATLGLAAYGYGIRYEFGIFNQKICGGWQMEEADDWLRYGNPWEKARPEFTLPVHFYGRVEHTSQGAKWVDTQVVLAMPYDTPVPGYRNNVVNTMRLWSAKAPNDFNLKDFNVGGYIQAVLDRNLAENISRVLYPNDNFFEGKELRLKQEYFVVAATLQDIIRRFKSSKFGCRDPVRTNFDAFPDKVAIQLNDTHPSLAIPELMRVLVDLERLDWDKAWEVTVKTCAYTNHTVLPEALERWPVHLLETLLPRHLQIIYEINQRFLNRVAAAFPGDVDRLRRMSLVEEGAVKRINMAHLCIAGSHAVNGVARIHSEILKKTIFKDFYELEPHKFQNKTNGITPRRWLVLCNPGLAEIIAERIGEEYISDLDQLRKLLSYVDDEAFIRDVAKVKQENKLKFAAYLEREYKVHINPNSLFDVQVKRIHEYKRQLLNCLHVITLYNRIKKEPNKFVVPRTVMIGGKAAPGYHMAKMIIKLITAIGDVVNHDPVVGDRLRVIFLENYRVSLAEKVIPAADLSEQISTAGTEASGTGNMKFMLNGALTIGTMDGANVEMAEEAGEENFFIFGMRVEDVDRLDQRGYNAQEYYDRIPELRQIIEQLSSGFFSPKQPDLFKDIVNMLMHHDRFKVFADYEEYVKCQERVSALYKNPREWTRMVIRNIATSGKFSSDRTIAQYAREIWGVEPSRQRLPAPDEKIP
The experiment in a line: Inhibition of rabbit skeletal muscle glycogen phosphorylase b assessed as inorganic phosphate release using glucose-1-phosphate as substrate at pH 6.8 at 200 uM.

Series [4] deals with T2, Glycogen phosphorylase, liver form (Homo sapiens, UniProt P06737).
T2 sequence (P06737 whole entry): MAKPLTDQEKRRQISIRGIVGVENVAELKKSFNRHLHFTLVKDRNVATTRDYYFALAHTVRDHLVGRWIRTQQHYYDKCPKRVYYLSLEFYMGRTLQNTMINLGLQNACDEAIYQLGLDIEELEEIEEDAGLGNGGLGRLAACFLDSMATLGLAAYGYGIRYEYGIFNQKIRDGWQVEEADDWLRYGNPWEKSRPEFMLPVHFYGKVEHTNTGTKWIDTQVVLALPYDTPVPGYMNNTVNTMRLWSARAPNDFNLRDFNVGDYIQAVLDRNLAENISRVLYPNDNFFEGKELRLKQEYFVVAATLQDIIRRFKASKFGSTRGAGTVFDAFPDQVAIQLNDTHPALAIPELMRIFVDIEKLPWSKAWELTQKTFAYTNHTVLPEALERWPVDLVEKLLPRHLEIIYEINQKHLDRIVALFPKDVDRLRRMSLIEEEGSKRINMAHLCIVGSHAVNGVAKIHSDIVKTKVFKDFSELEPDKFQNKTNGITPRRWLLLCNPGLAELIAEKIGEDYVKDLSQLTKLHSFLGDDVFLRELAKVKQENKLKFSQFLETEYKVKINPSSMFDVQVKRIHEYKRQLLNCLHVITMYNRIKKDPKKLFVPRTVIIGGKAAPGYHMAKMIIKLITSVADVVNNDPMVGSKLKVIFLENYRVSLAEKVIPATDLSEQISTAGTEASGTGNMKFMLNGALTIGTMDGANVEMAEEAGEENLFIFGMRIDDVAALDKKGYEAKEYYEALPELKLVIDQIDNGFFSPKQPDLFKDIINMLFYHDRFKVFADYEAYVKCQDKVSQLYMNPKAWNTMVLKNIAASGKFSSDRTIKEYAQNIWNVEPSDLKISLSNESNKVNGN
In words: Inhibition of human recombinant liver glycogen phosphorylase A expressed in baculovirus infected Sf9 insect cells assessed as release of phosphate from glucose-1- phosphate in presence of 7.5 mM glucose by malachite green based assay.

Series [5] has as its target T3, Glycogen phosphorylase, muscle form (Oryctolagus cuniculus, UniProt P00489).
T3 sequence (P00489 whole entry): T1 sequence (whole entry)
The experiment in a line: Inhibition of rabbit muscle glycogen phosphorylase b using […] preincubated for 60 mins followed by substrate addition in presence of glycogen.

Series [6] has as its target T3, Glycogen phosphorylase, muscle form. In words: Inhibition of rabbit skeletal muscle glycogen phosphorylase b assessed as reduction in inorganic phosphate release using glucose-1-phosphate as substrate at pH 6.8.
The target of series [7] is T1, Glycogen phosphorylase, muscle form (Oryctolagus cuniculus). The experiment in a line: Inhibition of rabbit skeletal muscle glycogen phosphorylase b assessed as inorganic phosphate release using glucose-1-phosphate as substrate at pH 6.8 at 500 uM.
For series [8] the target is unchanged. The experiment in a line: Inhibition of rabbit skeletal muscle glycogen phosphorylase b assessed as inorganic phosphate release using glucose-1-phosphate as substrate at pH 6.8 at 250 uM.
Series [9] shares this target. In words: Inhibition of rabbit skeletal muscle glycogen phosphorylase b assessed as inorganic phosphate release using glucose-1-phosphate as substrate at pH 6.8 at 300 uM.
Series [10] has the same target. The experiment in a line: Inhibition of rabbit skeletal muscle glycogen phosphorylase b assessed as inorganic phosphate release using glucose-1-phosphate as substrate at pH 6.8 at 1000 uM.

pIC50: −log10 of the molar value.

`O=C(CCl)Nc1ccc(-c2nc3ccccc3[nH]2)cc1`: the solubility result in [1] was “Insoluble”; in [2] it was “Soluble”.

In the case of `Oc1nc(=S)[nH]c(O)c1/N=N/c1ccc(-c2nc3ccccc3[nH]2)cc1`, the inhibition in series [3] turned out to be 16.1%. Moreover, the solubility result in series [1] is recorded as “Insoluble”.

In the case of `O=C(N[C@@H](Cc1ccc(F)cc1)C(=O)C(=O)N1CCC(O)CC1)c1cc2cc(Cl)ccc2[nH]1`, the pIC50 was 6.70 in series [4] and 6.75 in [5].

As to `O=C(NC(=O)c1cc(F)c(F)cc1Cl)Nc1ccsc1-c1n[nH]c(=O)o1`, the pIC50 in series [4] is 4.52.

Regarding `CC(=O)C/C(C)=N/c1ccc(-c2nc3ccccc3[nH]2)cc1`, the inhibition in series [3] stood at 7%. For the same molecule, the solubility result is recorded as “Insoluble” in series [1] and “Soluble” in [2].

As for `O=[N+]([O-])c1ccccc1S(=O)(=O)Nc1ccc(-c2nc3ccccc3[nH]2)cc1`, the pIC50 in series [6] is 3.45. Besides, the values for the solubility result in series [1] and in series [2] were “Insoluble” and “Soluble”, respectively.

For the molecule `O=c1[nH][nH]c(O)c1/N=N/c1ccc(-c2nc3ccccc3[nH]2)cc1`, the solubility result in [1] is “Insoluble”. In addition, the inhibition in series [7] turned out to be 29.4%.

As for `Cc1nn(-c2ccccc2)c(C)c1/N=N/c1ccc(-c2nc3ccccc3[nH]2)cc1`, in series [1], the solubility result was “Insoluble”.

For the molecule `O=C1N=C(Nc2ccc(-c3nc4ccccc4[nH]3)cc2)CNN1`, the pIC50 in [6] is 3.36. For the same molecule, the solubility result in [1] is recorded as “Insoluble”.

Consider `O=S(=O)(Nc1ccc(-c2nc3ccccc3[nH]2)cc1)c1ccccc1`, for which, in series [6], the pIC50 was 3.49. Further, the solubility result was “Insoluble” in series [1] and “Soluble” in [2].

In the case of `O=C(O)c1cc(Nc2ccc(-c3nc4ccccc4[nH]3)cc2)n(-c2ccc([N+](=O)[O-])cc2)n1`, the solubility entry in series [1] is on record as “Insoluble”. For the same molecule, the inhibition in series [8] was 8.1%.

For `N=C1N=C(Nc2ccc(-c3nc4ccccc4[nH]3)cc2)CN1`, the solubility entry in [1] was “Insoluble”.

For the molecule `c1ccc2[nH]c(-c3ccc(NC4=NCCNC4)cc3)nc2c1`, the solubility result in [1] was “Insoluble”.

`S=C1N=C(Nc2ccc(-c3nc4ccccc4[nH]3)cc2)CNN1`: the solubility entry was “Insoluble” in [1] and “Soluble” in series [2].

In the case of `Cc1nn(-c2ccc([N+](=O)[O-])cc2)c(C)c1/N=N/c1ccc(-c2nc3ccccc3[nH]2)cc1`, in [6], the pIC50 is 3.27. Further, the solubility result in series [1] is listed as “Insoluble”.

Consider `Cc1ccc(S(=O)(=O)Nc2ccc(-c3nc4ccccc4[nH]3)cc2)cc1`, for which the solubility entry in series [1] was “Insoluble”; in series [2], “Soluble”. Moreover, in series [7], the inhibition is 20.7%.

For the molecule `O=C1N=C(Nc2ccc(-c3nc4ccccc4[nH]3)cc2)CN1`, the solubility entry in series [1] is on record as “Insoluble”.

For `CCOC(=O)C(=NNc1ccc(-c2nc3ccccc3[nH]2)cc1)C(=O)OCC`, the solubility result in series [1] was “Insoluble”; in [2], “Soluble”.

Take `CN(C)C(=O)[C@H](O)[C@H](Cc1ccccc1)NC(=O)c1cc2cc(Cl)ccc2[nH]1`: the pIC50 in series [4] was 7.09.

On to `CC(=O)C(/N=N/c1ccc(-c2nc3ccccc3[nH]2)cc1)=C(/C)O`, for which the solubility result is “Insoluble” in [1] and “Soluble” in series [2].

As to `O=C(O)c1cc(Nc2ccc(-c3nc4ccccc4[nH]3)cc2)n(-c2ccccc2)n1`, the solubility result in [1] is recorded as “Insoluble”. For the same molecule, the inhibition in [9] was 25%.

Consider `S=C1N=C(Nc2ccc(-c3nc4ccccc4[nH]3)cc2)CN1`, for which the solubility result in series [1] is reported as “Insoluble”.

Turning to `Cc1n[nH]c(C)c1/N=N/c1ccc(-c2nc3ccccc3[nH]2)cc1`, the solubility entry in series [1] is “Insoluble”.

For the molecule `Nc1ccc(-c2nc3ccccc3[nH]2)cc1`, the solubility result in series [1] was “Insoluble”.

Turning to `O=C(O)c1cc(Nc2ccc(-c3nc4ccccc4[nH]3)cc2)[nH]n1`, the solubility entry in series [1] and in [2] was “Insoluble” each time.

With `O=C(O)/C=C/C(=O)Nc1ccc(-c2nc3ccccc3[nH]2)cc1`, the inhibition in series [10] stood at 45%. Also, in series [1], the solubility result is given as “Insoluble”.

For the origin of these results see ChEMBL document CHEMBL3860064, “Synthesis of (benzimidazol-2-yl)aniline derivatives as glycogen phosphorylase inhibitors” (Bioorg Med Chem, 2016).
